Laboratory results published in patent US20130143915A1, “TRIAZOLOPYRIDINES AS TYK2 INHIBITORS” (CELLZOME LIMITED, priority 2010, published 2013).

Assays:
[1] = biological target: T1, JAK2 (Homo sapiens, UniProt O60674); test: Kinobeads assay, JAK2 (competition binding in mixed Molt4/Ramos cell lysate, dot blot detection)
T1 construct: endogenous in cells; host or cells: mixed Molt4/Ramos cell lysate (1:2)
Experimental: (§1) The compounds of the present invention as described in the previous examples were tested in a Kinobeads™ assay as described for ZAP-70 (WO-A 2007/137867). Briefly, test compounds (at various concentrations) and the affinity matrix with the immobilized aminopyrido-pyrimidine ligand 24 were added to cell lysate aliquots and allowed to bind to the proteins in the lysate sample. After the incubation time the beads with captured proteins were separated from the lysate. Bound proteins were then eluted and the presence of TYK2 and JAK2 was detected and quantified using specific antibodies in a dot blot procedure and the Odyssey infrared detection system. Dose response curves for individual kinases were generated and IC50 values calculated. Kinobeads™ assays have been previously described (WO-A 2007/137867; WO-A 2006/134056).
(§2) The affinity matrix was washed two times with 15 mL of 1×DP buffer containing 0.2% NP40 (IGEPAL® CA-630, Sigma, #13021) and then resuspended in 1×DP buffer containing 0.2% NP40 (3% beads slurry).
(§3) 5×DP buffer: 250 mM Tris-HCl pH 7.4, 25% Glycerol, 7.5 mM MgCl2, 750 mM NaCl, 5 mM Na3VO4; filter the 5×DP buffer through a 0.22 μm filter and store in aliquots at −80° C. The 5×DP buffer is diluted with H2O to 1×DP buffer containing 1 mM DTT and 25 mM NaF.
(§4) Stock solutions of test compounds were prepared in DMSO. In a 96 well plate 30 μL solution of diluted test compounds at 5 mM in DMSO were prepared. Starting with this solution a 1:3 dilution series (9 steps) was prepared. For control experiments (no test compound) a buffer containing 2% DMSO was used.
(§5) Molt4 cells (ATCC catalogue number CRL-1582) and Ramos cells (ATCC catalogue number CRL-1596) were grown in 1 L Spinner flasks (Integra Biosciences, #182101) in suspension in RPMI 1640 medium (Invitrogen, #21875-034) supplemented with 10% Fetal Bovine Serum (Invitrogen) at a density between 0.15×10^6 and 1.2×10^6 cells/mL. Cells were harvested by centrifugation, washed once with 1×PBS buffer (Invitrogen, #14190-094) and cell pellets were frozen in liquid nitrogen and subsequently stored at −80° C. Cells were homogenized in a Potter S homogenizer in lysis buffer: 50 mM Tris-HCl, 0.8% NP40, 5% glycerol, 150 mM NaCl, 1.5 mM MgCl2, 25 mM NaF, 1 mM sodium vanadate, 1 mM DTT, pH 7.5. One complete EDTA-free tablet (protease inhibitor cocktail, Roche Diagnostics, 1873580) per 25 mL buffer was added. The material was dounced 10 times using a mechanized POTTER S, transferred to 50 mL falcon tubes, incubated for 30 minutes on ice and spun down for 10 minutes at 20,000 g at 4° C. (10,000 rpm in Sorvall SLA600, precooled). The supernatant was transferred to an ultracentrifuge (UZ)-polycarbonate tube (Beckmann, 355654) and spun for 1 hour at 100.000 g at 4° C. (33.500 rpm in Ti50.2, precooled). The supernatant was transferred again to a fresh 50 mL falcon tube, the protein concentration was determined by a Bradford assay (BioRad) and samples containing 50 mg of protein per aliquot were prepared. The samples were immediately used for experiments or frozen in liquid nitrogen and stored frozen at −80° C.
(§6) Cell lysate (approximately 50 mg protein per plate) was thawed in a water bath at room temperature and then stored on ice. To the thawed cell lysate 1×DP 0.8% NP40 buffer containing protease inhibitors (1 tablet for 25 mL buffer; EDTA-free protease inhibitor cocktail; Roche Diagnostics 1873580) was added in order to reach a final protein concentration of 10 mg/mL total protein. The diluted cell lysate was stored on ice. Mixed Molt4/Ramos lysate was prepared by combining one volume of Molt4 lysate and two volumes of Ramos lysate (ratio 1:2).
(§7) To a 96 well filter plate (Multiscreen HTS, BV Filter Plates, Millipore #MSBVN1250) were
(§8) added per well: 100 μL affinity matrix (3% beads slurry), 3 μL of compound solution, and 50 μL of diluted lysate. Plates were sealed and incubated for 3 hours in a cold room on a plate shaker (Heidolph tiramax 1000) at 750 rpm. […]

[2] = biological target: T2, TYK2 (Homo sapiens, UniProt P29597); test: Kinobeads assay, TYK2 (competition binding in mixed Molt4/Ramos cell lysate, dot blot detection)
T2 construct: endogenous in cells; host or cells: mixed Molt4/Ramos cell lysate (1:2)
Experimental: as §1, §2, §3, §4, §5, §6, §7, §8

T1 sequence (O60674 whole entry): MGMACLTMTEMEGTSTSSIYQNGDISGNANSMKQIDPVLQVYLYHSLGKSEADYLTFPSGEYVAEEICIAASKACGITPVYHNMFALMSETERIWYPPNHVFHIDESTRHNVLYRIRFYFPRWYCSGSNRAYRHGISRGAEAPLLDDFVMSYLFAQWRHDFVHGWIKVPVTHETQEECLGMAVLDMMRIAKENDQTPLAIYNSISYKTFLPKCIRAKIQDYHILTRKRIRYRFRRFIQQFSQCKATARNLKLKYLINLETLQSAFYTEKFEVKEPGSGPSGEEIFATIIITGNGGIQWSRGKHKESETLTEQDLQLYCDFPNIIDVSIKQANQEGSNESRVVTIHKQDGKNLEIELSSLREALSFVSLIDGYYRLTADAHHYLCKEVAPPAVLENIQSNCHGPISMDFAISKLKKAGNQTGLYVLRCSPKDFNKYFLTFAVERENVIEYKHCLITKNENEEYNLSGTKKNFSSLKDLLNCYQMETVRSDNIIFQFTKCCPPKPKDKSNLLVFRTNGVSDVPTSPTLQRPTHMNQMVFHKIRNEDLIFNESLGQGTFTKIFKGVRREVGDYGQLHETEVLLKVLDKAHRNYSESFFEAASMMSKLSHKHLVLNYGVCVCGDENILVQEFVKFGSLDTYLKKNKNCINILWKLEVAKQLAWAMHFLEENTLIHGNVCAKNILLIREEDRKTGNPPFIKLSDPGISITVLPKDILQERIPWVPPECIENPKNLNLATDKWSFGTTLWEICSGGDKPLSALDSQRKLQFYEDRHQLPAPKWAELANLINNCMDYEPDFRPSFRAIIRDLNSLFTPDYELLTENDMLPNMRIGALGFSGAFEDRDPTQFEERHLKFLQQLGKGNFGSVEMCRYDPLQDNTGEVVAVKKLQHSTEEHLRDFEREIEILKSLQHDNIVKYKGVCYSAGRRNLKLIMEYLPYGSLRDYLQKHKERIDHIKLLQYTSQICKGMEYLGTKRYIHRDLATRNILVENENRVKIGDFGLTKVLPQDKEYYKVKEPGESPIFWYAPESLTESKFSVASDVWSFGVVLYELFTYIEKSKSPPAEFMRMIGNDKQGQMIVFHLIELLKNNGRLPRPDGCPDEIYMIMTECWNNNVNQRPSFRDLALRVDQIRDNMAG
T2 sequence (P29597 whole entry): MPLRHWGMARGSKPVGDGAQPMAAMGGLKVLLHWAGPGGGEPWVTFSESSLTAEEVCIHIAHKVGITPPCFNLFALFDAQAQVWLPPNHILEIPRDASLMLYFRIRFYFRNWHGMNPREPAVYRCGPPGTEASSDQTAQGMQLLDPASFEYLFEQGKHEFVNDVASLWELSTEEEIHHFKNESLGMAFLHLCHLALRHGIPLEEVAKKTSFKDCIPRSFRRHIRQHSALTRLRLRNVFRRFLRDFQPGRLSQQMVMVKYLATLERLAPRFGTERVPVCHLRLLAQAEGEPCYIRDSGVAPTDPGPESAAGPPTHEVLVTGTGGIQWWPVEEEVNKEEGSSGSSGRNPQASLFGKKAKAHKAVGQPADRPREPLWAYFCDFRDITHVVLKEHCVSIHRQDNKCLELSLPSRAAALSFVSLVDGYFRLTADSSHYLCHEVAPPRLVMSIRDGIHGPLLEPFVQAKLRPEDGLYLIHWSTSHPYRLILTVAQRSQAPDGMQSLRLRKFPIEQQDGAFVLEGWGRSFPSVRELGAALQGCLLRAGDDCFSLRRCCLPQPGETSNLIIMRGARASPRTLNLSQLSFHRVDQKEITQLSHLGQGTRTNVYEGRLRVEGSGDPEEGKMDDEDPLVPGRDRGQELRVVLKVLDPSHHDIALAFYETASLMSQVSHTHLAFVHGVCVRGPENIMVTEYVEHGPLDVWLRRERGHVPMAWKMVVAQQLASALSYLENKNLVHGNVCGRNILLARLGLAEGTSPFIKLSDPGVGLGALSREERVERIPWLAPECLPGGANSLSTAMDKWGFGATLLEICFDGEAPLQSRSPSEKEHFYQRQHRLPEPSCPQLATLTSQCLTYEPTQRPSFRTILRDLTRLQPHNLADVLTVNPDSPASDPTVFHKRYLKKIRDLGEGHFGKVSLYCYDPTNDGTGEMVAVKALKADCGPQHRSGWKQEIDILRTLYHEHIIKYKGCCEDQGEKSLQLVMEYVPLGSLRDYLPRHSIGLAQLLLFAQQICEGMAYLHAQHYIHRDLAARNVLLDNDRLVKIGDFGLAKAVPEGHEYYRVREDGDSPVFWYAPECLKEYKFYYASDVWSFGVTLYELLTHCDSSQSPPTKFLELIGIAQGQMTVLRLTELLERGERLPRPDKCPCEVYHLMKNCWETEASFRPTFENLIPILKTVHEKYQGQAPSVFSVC

With `COc1ccc(-c2cccc3nc(NC(=O)C4CC4)nn23)c(F)c1` [Example 1, N-(5-(2-fluoro-4-methoxyphenyl)-[1,2,4]triazolo[1,5-a]pyridin-2-yl)cyclopropane carboxamide] the IC50 [1] was > 10 µM and the IC50 [2] was 0.1 to 1 µM.
For `O=C(Nc1nc2cccc(-c3ccc(Cl)cc3Cl)n2n1)C1CC1` [Example 2, N-(5-(2,4-dichlorophenyl)-[1,2,4]triazolo[1,5-a]pyridin-2-yl)cyclopropanecarboxamide], the IC50 [1] was > 10 µM and the IC50 [2] was 0.1 to 1 µM.
`COc1ccc(-c2cccc3nc(NC(=O)C4CC4)nn23)c(C(F)(F)F)c1` [Example 3, N-(5-(4-methoxy-2-(trifluoromethyl)phenyl)-[1,2,4]triazolo[1,5-a]pyridin-2-yl)cyclopropanecarboxamide] was tested, and the IC50 [1] was > 10 µM and the IC50 [2] was 1 to 10 µM.
`COc1ccc(-c2cccc3nc(NC(=O)C4CC4)nn23)c(Cl)c1` [Example 4, N-(5-(2-chloro-4-methoxyphenyl)-[1,2,4]triazolo[1,5-a]pyridin-2-yl)cyclopropanecarboxamide] was tested, and the IC50 [1] was > 10 µM and the IC50 [2] was 0.1 to 1 µM.
In the case of `CS(=O)(=O)c1ccc(-c2cccc3nc(NC(=O)C4CC4)nn23)c(F)c1` [Example 5, N-(5-(2-fluoro-4-(methylsulfonyl)phenyl)-[1,2,4]triazolo[1,5-a]pyridin-2-yl)cyclopropanecarboxamide], the IC50 [1] is reported as > 10 µM and the IC50 [2] is reported as 0.1 to 1 µM.
With `Nc1ccc(-c2cccc3nc(NC(=O)C4CC4)nn23)c(Cl)c1` [Example 6, N-(5-(4-amino-2-chlorophenyl)-[1,2,4]triazolo[1,5-a]pyridin-2-yl)cyclopropanecarboxamide] the IC50 [1] was > 10 µM and the IC50 [2] was 0.1 to 1 µM.
For `Nc1ccc(-c2cccc3nc(NC(=O)C4CC4)nn23)c(F)c1` [Example 7, N-(5-(4-amino-2-fluorophenyl)-[1,2,4]triazolo[1,5-a]pyridin-2-yl)cyclopropanecarboxamide], the IC50 [1] was > 10 µM and the IC50 [2] was 0.1 to 1 µM.
In the case of `CS(=O)(=O)Nc1ccc(-c2cccc3nc(NC(=O)C4CC4)nn23)c(Cl)c1` [Example 8, N-(5-(2-chloro-4-(methylsulfonamido)phenyl)-[1,2,4]triazolo[1,5-a]pyridin-2-yl)cyclopropanecarboxamide], the IC50 [1] is reported as > 10 µM and the IC50 [2] is reported as 0.1 to 1 µM.
For `CS(=O)(=O)Nc1ccc(-c2cccc3nc(NC(=O)C4CC4)nn23)c(F)c1` [Example 9, N-(5-(2-fluoro-4-(methylsulfonamido)phenyl)-[1,2,4]triazolo[1,5-a]pyridin-2-yl)cyclopropanecarboxamide], the IC50 [1] was > 10 µM and the IC50 [2] was 0.1 to 1 µM.
For `COc1ccc(-c2cccc3nc(NC(=O)C4CC4)nn23)c(C)c1` [Example 10, N-(5-(4-methoxy-2-methylphenyl)-[1,2,4]triazolo[1,5-a]pyridin-2-yl)cyclopropanecarboxamide], the IC50 [1] was > 10 µM and the IC50 [2] was 0.1 to 1 µM.
In the case of `O=C(Nc1nc2cccc(-c3ccc(NS(=O)(=O)C4CC4)cc3Cl)n2n1)C1CC1` [Example 11], the IC50 [1] is reported as > 10 µM and the IC50 [2] is reported as < 0.1 µM.
For `Cc1ccc(-c2cccc3nc(NC(=O)C4CC4)nn23)c(C)c1` [Example 12, N-(5-(2,4-dimethylphenyl)-[1,2,4]triazolo[1,5-a]pyridin-2-yl)cyclopropanecarboxamide], the IC50 [1] was > 10 µM and the IC50 [2] was 0.1 to 1 µM.
